Measured values: the NIST ThermoML archive (doi:10.1016/j.jct.2015.11.009)

Columns and labels:
[1] = refractive index (Na D-line) (dimensionless); xn = mol fraction of the nth substance listed; settings: 100 kPa, Liquid, Standard Abbe refractometry, x1 = 1
[2] = xn = mol fraction of the nth substance listed; settings: 100 kPa, Liquid, x1 = 1; for speed of sound: Frequency=3 MHz, Sing-around technique in a fixed-path interferometer; for mass density: Vibrating tube method
[3] = 100 kPa, Liquid; for speed of sound: Frequency=3 MHz, Sing-around technique in a fixed-path interferometer; for mass density: Vibrating tube method
[4] = refractive index (Na D-line) (dimensionless); settings: 100 kPa, Liquid, Standard Abbe refractometry

CCCCn1cc[n+](C)c1.F[B-](F)(F)F [1-butyl-3-methylimidazolium tetrafluoroborate] + O=C1CCCN1
Settings	mass density, [2] [kg/m3]	refractive index, [1]	speed of sound, [2] [m/s]
298.15 K	1198.78	1.42058	1565.1
303.15 K	1195.18	1.41913	1553.2
308.15 K	1191.6	1.41764	1541.3
313.15 K	1188.04	1.41621	1529.7
318.15 K	1184.5	1.41472	1518.2
323.15 K	1180.98	1.4133	1506.8

O=C1CCCN1 [2-pyrrolidinone]
Settings	mass density, [3] [kg/m3]	refractive index, [4]	speed of sound, [3] [m/s]
298.15 K	1107.16	1.48591	1634.4
303.15 K	1103.07	1.48403	1618
308.15 K	1098.99	1.48218	1601.6
313.15 K	1094.9	1.48033	1585.4
318.15 K	1090.82	1.47841	1570.4
323.15 K	1086.75	1.47649	1553.5
